Laboratory results published in patent publication US8048923B2, “Treatment of polyglutamine disorders caused by expanding genomic CAG nucleotides” (Odessa Pharma, priority 2003, dated 2011).

Assays:
Huntington's disease = settings: patients, cited from earlier work; for slowing of progression of Huntington's disease: large-scale clinical trial
glutamine synthetase = glutamine synthetase (Homo sapiens, UniProt P15104); settings: cited from earlier work
[1] = in vivo; cited from earlier work
[2] = tested on: Differentiated inducible PC12 cells; assay: L-glutamine add-back to MSO treated PC12 culture; format: cell-based
Method: The cells are grown overnight and aggregation is calculated. Inhibition of aggregation proceeds in a concentration-dependent manner.
In contrast, the addition of L-GLN has no effect on the growth of cells not treated with MSO or cultures treated with subinhibitory concentrations of MSO.

[3] = tested on: Differentiated inducible PC12 cells; settings: MSO 1-100 μM, low glutamine medium, overnight, fluorescent microscopy counts
Method: Cells (1×10^6) are plated in 10-cm plates using tissue culture medium low in glutamine to ensure that most of the glutamine in the cells is the product of de novo synthesis by cellular glutamine synthetase. […] MSO is added directly to the cell-culture media at final concentrations of 1-100 μM. The cells are grown overnight and aggregation is calculated. […] Visual counts of aggregates are performed by using fluorescent microscopy.

[4] = tested on: Drosophila transgenic polyQ line P{UAS-Q48myc}^42; settings: Q48 flies fed MSO; Q48 flies without MSO need an average of 26 sec
Method: Flies are mated at 25° C. as described in Nature 413, 739-743. Eggs are collected and transferred into vials at 29° C. containing standard food supplemented with MSO, and adults are transferred to vials containing fresh food every 3 days after eclosion.
A second phenotype associated with expanded polyQ expression is a decrease in motor function. This is assayed by using an “escape” or climbing assay as described in Exp. Gerontol.

[5] = tested on: brain levels of glutamine; settings: MSO administered to normal animals; reduced from 5.6; cited from earlier work
[6] = tested on: mice with the gene mutation for Huntington's disease (HD); settings: cited from earlier work

Sequence of glutamine synthetase (P15104 2-373 limits assumed, species assumed): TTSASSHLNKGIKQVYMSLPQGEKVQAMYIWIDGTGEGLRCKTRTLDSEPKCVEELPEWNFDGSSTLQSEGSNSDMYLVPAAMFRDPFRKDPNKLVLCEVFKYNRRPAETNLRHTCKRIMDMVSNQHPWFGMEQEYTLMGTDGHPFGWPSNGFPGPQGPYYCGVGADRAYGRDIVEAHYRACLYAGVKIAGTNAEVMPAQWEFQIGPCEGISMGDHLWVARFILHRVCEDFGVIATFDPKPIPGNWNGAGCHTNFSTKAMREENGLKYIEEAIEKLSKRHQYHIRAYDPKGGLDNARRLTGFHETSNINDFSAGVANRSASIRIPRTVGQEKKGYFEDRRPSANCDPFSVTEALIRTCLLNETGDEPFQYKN

COC1=C(OC)C(=O)C(C/C=C(\C)CC/C=C(\C)CC/C=C(\C)CC/C=C(\C)CC/C=C(\C)CC/C=C(\C)CC/C=C(\C)CC/C=C(\C)CC/C=C(\C)CCC=C(C)C)=C(C)C1=O [Coenzyme Q10]
slowing of progression of Huntington's disease (Huntington's disease): neither drug resulted in any significant improvement
disease progression after one year of treatment (Huntington's disease; one year of treatment, overall results inconclusive): seemed to progress more slowly

CP(=O)(O)CCC(N)C(=O)O [Glufosinate, ammonium-D-L-homoalanine-4-yl(methyl)-phosphinate]
type of inhibition of glutamine synthetase (glutamine synthetase): catalytic inhibitor
crossing of the blood brain barrier [1]: does not cross the blood brain barrier

NC(=O)CC[C@H](N)C(=O)O [L-glutamine]
toxic protein synthesis and aggregation after addition of L-glutamine ([2]; MSO treated culture): increased toxic protein synthesis and aggregation
growth of cells after addition of L-GLN ([2]; cells not treated with MSO or treated with subinhibitory concentrations of MSO): no effect

CS(=N)(=O)CC[C@H](N)C(=O)O (stereo partly drawn) [MSO, L-methionine S-sulfoximine]
visible aggregate production (aggregation) [3]: inhibit aggregation
time to climb a defined distance up a vial (motor function) [4]: require less time to climb the same distance
type of inhibition of glutamine synthetase (glutamine synthetase): irreversible inhibitor
brain levels of glutamine [5]: 1.8 mmol/kg brain

CC(Cc1ccccc1)(NC(=O)CN)c1ccccc1 (stereo not shown) [Remacemide]
slowing of progression of Huntington's disease (Huntington's disease): neither drug resulted in any significant improvement

NCCSSCCN [cystamine]
tremors and survival ([6]; HD mutation mice): alleviate tremors and prolong life
levels of neuroprotective proteins ([6]; mouse, in vivo): increase the levels of certain neuroprotective proteins
